Experimental data reported in PMC12326976 (Antimicrobial Agents and Chemotherapy, 2025).
Bridge positions count the residues as written; N and C are the ends. Ends that are not written are not given here. I, II: the chains in the order shown.

Tests used:
H3N2 virus = assay: Plaque assay, H3N2 in MDCK cells; assay type: cell-based, influenza H3N2 virus; details: plaque number normalized to untreated virus, Fig. S2
Experimental: The antiviral activity of peptides was measured by plaque reduction assay. Briefly, peptides were dissolved in PBS or 20% PBS. Peptides (0.2-25.0 µg mL^−1) were premixed with H1N1 virus at room temperature. After 30 min of incubation, the peptide-virus mixture was transferred to MDCK cells for infection at 37°C. At 1 hpi, infectious media were removed, and then 1% low melting agar was added to cells. Cells were fixed using 4% formalin at 2–3 dpi. […] (0.1%) was added to cells for cell staining to count viral plaques.
Fig. S2. The antiviral activity of 4H30 against H3N2 virus in MDCK cells. H3N2 virus was treated with the indicated concentrations of 4H30 to infect MDCK cells. The percentage (%) was the plaque number of virus treated with 4H30 normalized to virus without treatment (0).

H1N1 virus = assay type: cell-based, influenza H1N1 virus
LDLR = biological target: T1, LDLR (Homo sapiens, UniProt P01130); assay: ELISA binding assay, LDLR; details: 4H30 1.0 µg, 0.25 µg and 0 µg, Fig. 4g
T1 construct: His; purchased Sino 10231-H081-50
Experimental: Peptides (1.0 µg per well) were dissolved in H2O. Influenza HA, NA (Sino, Cat^# 11058-V07B), or LDLR (Sino, Cat^# 10231-H081-50, 100 ng) dissolved in PBS was coated onto ELISA plates, incubated at 4°C overnight, and blocked with BSA at 4°C overnight. HA or VP1 was added to wells for binding and then determined by incubation with goat anti-His-HRP (Invitrogen, Cat^# R93125, 1: 2,000) at 37°C for 30 min. The reaction was developed by adding 100 µL of the TMB single solution (Life Technologies, Cat^# 002023) for 15 min at 37°C and stopped with 50 µL of 1 M H2SO4. Readings were obtained in an ELISA plate reader (Victor 1420 Multilabel Counter; PerkinElmer) at 450 nm.

[1] = test system: neuraminidase activity of H1N1 virus; assay: Viral neuraminidase assay (NA-STAR); assay type: biochemical, influenza H1N1 virus; details: 4H30 50 and 12.5 µg mL^−1, 1 h, compared to zanamivir, Fig. S3
Experimental: Fig. S3. […] H1N1 virus was treated with MEM, zanamivir (5 μM and 1.25 μM), and 4H30 (50 μg mL^−1and 12.5 μg mL^−1) for 1 h. The neuraminidase activity was analysed using the Invitrogen NA-STAR INFLUENZA NIRD REAGENT (Cat^# 4374348). Data are presented as mean ± SD of indicated biological samples.

A(H1N1)pdm09 virus = test system: A(H1N1)pdm09 virus; parameters: species or system BALB/c mice; details: mouse, in vivo
rhinovirus A1 [2] = assay type: cell-based
rhinovirus A1 [3] = assay: Viral attachment assay, rhinovirus A1 on RD cells; assay type: cell-based; details: virus treated with 4H30, attachment at 4°C, Fig. 4d
Experimental: Viruses (H1N1 or rhinovirus A1) were treated with DMEM, 4H30 (25 µg mL^−1), or an influenza neutralization antibody at room temperature for 30 min and then added to cells for attachment at 4°C for 1 h. After washing the unbound virus, the attached virus on cells was measured by RT-qPCR. At least two experiments with biological duplication samples were included for each treatment.

rhinovirus A1 [4] = assay type: cell-based; remark: listed apart in the source
rhinovirus A1 [5] = assay: Rhinovirus A1 in H1-Hela cells; assay type: cell-based; details: 4H30 25 μg mL^−1, viral RNA copies in cells at 16 hpi, Fig. S6a
Experimental: Fig. S6. […] H1-Hela cells are the standard cell model for efficient Rhinovirus A16 (RV-A16) replication. RV-A1 (a) or RV-A16 (b) was treated with 4H30 (25 μg mL^−1) for one hour of infection and then the infectious media were replaced with MEM with 4H30 for viral culture. Viral RNA copies in cells were measured at 16 hpi. Virus in MEM was the control. No viral infection was the mock control. Data are presented as mean ± SD of indicated biological samples.

rhinovirus A1 [6] = assay: Anti-rhinovirus assay in cardiomyocytes (hIPSC-CMs); assay type: cell-based; details: 4H30 25 µg mL^−1; supernatants at 48 hpi; compared to DMEM- and P9RS-treated controls; Fig. 5d
Source text: Cardiomyocytes are generated from human-induced pluripotent stem cells (iPSCs) as we had previously published ([22], [23]). Initially, IMR90 iPSCs are maintained in 12-well plates pre-coated with Matrigel (Thermo Fisher Scientific, USA) using StemFlex Medium (Thermo Fisher Scientific, USA). Subsequently, differentiation into cardiomyocytes is induced with the STEMdiff Ventricular Cardiomyocyte Differentiation Kit (Stem Cell Technologies, USA). This involves the sequential addition of Supplement A from days 1 to 2, Supplement B from days 3 to 4, and Supplement C from days 5 to 8 to cardiomyocyte differentiation basal medium. From day 9 onward, cardiomyocytes are sustained in cardiomyocyte maintenance basal medium with supplement (Stem Cell Technologies, USA). Lactate purification of cardiomyocytes is performed on days 11 to 12. Standard immunofluorescence staining with α-actinin and electrophysiology analysis by the patch clamping technique was performed to confirm their cardiomyocyte phenotype. To infect the cells, Rhinovirus A1 (0.025 TCID50) was treated with or without peptide in the media for infection. […]
Fig 5 4H30 inhibited rhinovirus replication in nasal organoids and cardiomyocytes. […] Viral RNAs were measured on day 1, day 2, and day 3 post-infection. […] Viral RNAs in the cell supernatants were measured by RT-qPCR at the indicated time points. […]

[7] = test system: HA-mediated cell-cell fusion (pH7N7-HA); details: 125 µg mL^−1, 293T cells, pH 5.0, Fig. 2b

T1 sequence (P01130 22-860): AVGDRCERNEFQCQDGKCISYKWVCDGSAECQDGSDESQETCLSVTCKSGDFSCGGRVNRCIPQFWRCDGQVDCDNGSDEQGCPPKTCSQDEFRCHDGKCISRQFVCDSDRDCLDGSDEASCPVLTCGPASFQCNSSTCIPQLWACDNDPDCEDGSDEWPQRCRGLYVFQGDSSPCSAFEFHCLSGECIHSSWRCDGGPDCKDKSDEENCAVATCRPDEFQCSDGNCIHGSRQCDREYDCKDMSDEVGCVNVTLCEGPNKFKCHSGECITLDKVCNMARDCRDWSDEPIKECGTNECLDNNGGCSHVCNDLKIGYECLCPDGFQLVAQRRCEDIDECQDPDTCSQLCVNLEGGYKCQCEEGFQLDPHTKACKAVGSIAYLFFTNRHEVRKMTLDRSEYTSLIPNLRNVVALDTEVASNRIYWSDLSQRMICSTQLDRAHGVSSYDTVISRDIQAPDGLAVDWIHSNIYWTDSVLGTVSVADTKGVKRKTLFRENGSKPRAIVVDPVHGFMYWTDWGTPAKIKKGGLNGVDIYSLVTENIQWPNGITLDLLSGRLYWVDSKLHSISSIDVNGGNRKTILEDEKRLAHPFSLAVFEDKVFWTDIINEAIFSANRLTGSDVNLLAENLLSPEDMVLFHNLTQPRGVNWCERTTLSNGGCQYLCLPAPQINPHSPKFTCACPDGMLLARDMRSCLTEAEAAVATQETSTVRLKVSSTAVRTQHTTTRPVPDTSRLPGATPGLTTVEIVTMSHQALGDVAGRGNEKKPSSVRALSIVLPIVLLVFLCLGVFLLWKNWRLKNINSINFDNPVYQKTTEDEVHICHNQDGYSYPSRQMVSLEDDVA

## I: GAICHPVFCPRRYKQIGTCGLPGTKCCKKPKK / II: GAICHPVFCPRRYKQIGTCGLPGTKCCKKPK / III: GAICHPVFCPRRYKQIGTCGLPGTKCCKKP / IV: GAICHPVFCPRRYKQIGTCGLPGTKCCKKP (amide I:31-IV:C, I:32-II:C, II:31-III:C; cysteines drawn unpaired) [4H30]
H3N2 virus
  inhibition of H3N2 virus infection: significantly inhibited group 2 influenza H3N2 virus infection
H1N1 virus
  H1N1 viral release, supernatant virus at 8 hpi: significantly inhibited H1N1 viral release from cells
  H1N1 viral release, supernatant virus at 18 hpi: inhibited viral release at 18 hpi
  inhibition of viral release after removal of GAGs: removal of GAGs reduced the activity of 4H30 in inhibiting viral release
  viral HA on cell membrane, anti-HA staining at 18 hpi: more viral HA was detected on the cell membrane
LDLR
  binding to LDLR: bound to the LDLR receptor of rhinovirus
[1]
  effect on neuraminidase activity: did not affect neuraminidase activity
A(H1N1)pdm09 virus
  survival of mice after lethal H1N1 challenge (protected mice): 5/6
A(H1N1)pdm09 virus; 0.5 mg/kg
  body weight loss of H1N1-infected mice: significantly reduced body weight loss
  viral loads in the lungs on day 2 post-infection: significantly inhibited H1N1 viral replication in mouse lungs
Rhinovirus A1 [2]
  RV-A1 replication, cells (1h-Pre) or virus (Pre-mix) treated before infection: significantly inhibited viral replication when cells or viruses were treated with 4H30 before viral infection
  RV-A1 replication, cells treated after infection (1h-Post and 2h-Post): showed reduced antiviral activity when cells were treated after viral infection
  antiviral activity after treating rhinovirus and dilution: did not show antiviral activity against rhinovirus
  antiviral activity when added after virus attachment (4H30-Post): antiviral activity diminished when rhinovirus was attached to cells at 4 °C and was treated with 4H30 at 1 hpi
  antiviral activity when present during viral infection (4H30-Pre): showed significant antiviral activity when treating virus during viral infection
Rhinovirus A1 [3]
  rhinovirus attachment to RD cells: reduced rhinovirus attachment to RD cells
Rhinovirus A1 [4]
  rhinovirus release from RD cells: did not inhibit viral release
Rhinovirus A1 [5]
  inhibition of rhinovirus A1 in H1-Hela cells: inhibited rhinovirus A1 in H1-Hela cells
Rhinovirus A1 [6]
  rhinovirus replication in hIPSC-CMs: significantly inhibited viral replication in hIPSC-CMs
[7]
  inhibition of HA-mediated cell-cell fusion induced by low pH: did not effectively block HA-mediated cell-cell fusion
